Source: patent publication US5116974A, “3-carbalkoxyamino-5-aminoacyl-5H-dibenz[b,f]azepines, and methods for making” (Arzneimittelwerk Dresden GmbH, priority 1989, dated 1992)

Columns and labels:
in vivo = settings: rat, iv, male or female Wistar rats, i.v. tail vein, Probit regression, confidence interval p=0.05 in parentheses, read-out: LD50 i.v. (acute tox., rat)
Source text: LD50 i.v. =lethal dose in mg/kg for 50% of the experimental animals of an orientating acute toxicity test on male or female Wistar rats of our own breed, i.v. administration in the tail vein, 3-4 dosages, 10 animals per group. Data analyzed by the Probit regression analysis with a confidence interval of p=0.05 (values given in parentheses).

[1] = tested on: dogs, 24 hours after a 2-step coronary ligature; assay: 2-step coronary ligature in dogs (Harris model); format: in vivo, dog
Source text: It is also emphasized that, in comparative investigations of the 2-step coronary ligature in dogs (Harris model), the new compounds of formula I have an advantageously sustained duration of action (see Table 1).

[2] = tested on: aconitine arrhythmia in female Wistar rats; format: in vivo, rat (female Wistar); settings: for ED73 i.v. (aconitine, rat): dose which inhibits aconitine arrhythmia up to the occurrence of isolated ventricular extrasystoles: female Wistar rats, Probit regression, confidence interval p=0.05 in parentheses; for Q = LD50 i.v./ED73 i.v. (therapeutic breadth): rat, ratio of LD50 to ED73 (aconitine model)
Method: ED73 i.v. =the dose in mg/kg, which inhibits aconitine arrhythmia in female Wistar rats after i.v. administration of the test substance up to the occurrence of isolated ventricular extrasystolea (K. Femmer et al., Pharmazie 31, page 36 (1976). The data is analyzed by the Probit regression analysis with a confidence interval of p=0.05 (values given in parentheses).

Solubility = format: physicochemical

| SMILES | LD50 (in vivo) [mg/kg] | duration of action (dog, Harris) ([1]; at eff. dose 2.0 mg/kg i.v.) [min] | ED73 i.v. (aconitine, rat): dose which inhibits aconitine arrhythmia up to the occurrence of isolated ventricular extrasystoles [2] | Q = LD50 i.v./ED73 i.v. (therapeutic breadth) [2] | duration of action (dog, Harris) ([1]; at eff. dose 6.0 mg/kg i.v.) [min] | solubility of the base in dilute acids (in words) (Solubility) | duration of action (dog, Harris) ([1]; at eff. dose 1.0 mg/kg i.v.) [min] |
| --- | --- | --- | --- | --- | --- | --- | --- |
| CCOC(=O)Nc1ccc2c(c1)N(C(=O)CN(C)C)c1ccccc1CC2 [Bonnecor ®, 3-carbethoxyamino-5-dimethylaminoacetyl-10,11-dihydro-5H-dibenz[b,f]azepine, reference compound] | 11 | 15 | 0.28 mg/kg | 39 | – | – | – |
| CCN(CC)CC(=O)Nc1c(C)cccc1C [Lidocaine, lidocaine, reference compound] | – | – | – | – | 10 | – | – |
| Cc1cccc(C)c1OCC(C)N (stereo not shown) [Mexiletin, mexiletin, reference compound] | 41 | – | 15 mg/kg | – | – | – | – |
| CCOC(=O)Nc1ccc2c(c1)N(C(=O)CCN1CCOCC1)c1ccccc1S2 [Morazicine, morazicine, reference compound] | 11 | 15 | 1.1 mg/kg | 10 | – | – | – |
| CCOC(=O)Nc1ccc2c(c1)N(C(=O)CNCc1ccccc1)c1ccccc1CC2 [No. 1, 3-carbethoxyamino-b 5-benzylaminoacetyl-10,11-dihydro-5H-dibenz[b,f]azepine] | 13 | – | 0.79 (0.53-1.2) mg/kg | 16 | – | not very soluble in dilute acids | – |
| CCOC(=O)Nc1ccc2c(c1)N(C(=O)CNCCO)c1ccccc1CC2 [No. 2, 3-carbethoxyamino-5-(beta-oxyethylamino)acetyl-10,11-dihydro-5H-dibenz[b,f]azepine] | 12 | 60 | 0.19 mg/kg | 63 | – | – | – |
| CCNCC(=O)N1c2ccccc2CCc2ccc(NC(=O)OCC)cc21 [No. 3] | 9.6 | 180 | 0.09 mg/kg | 107 | – | – | 60 |
| CCOC(=O)Nc1ccc2c(c1)N(C(=O)CNC(C)C)c1ccccc1CC2 [No. 4, 3-carbethoxyamino-5-isopropylamino-acetyl-10,11-dihydro-5H-dibenz[b,f]azepine] | 8.2 | – | 0.71 mg/kg | 12 | – | – | – |
| CCCNCC(=O)N1c2ccccc2CCc2ccc(NC(=O)OCC)cc21 [No. 5, 3-carbethoxyamino-5-n-propylamino-acetyl-10,11-dihydro-5H-dibenz[b,f]azepine] | 6.1 | – | 0.18 mg/kg | 34 | – | – | – |
| CCOC(=O)Nc1ccc2c(c1)N(C(=O)CNC(C)(C)C)c1ccccc1CC2 [No. 6, 3-carbethoxyamino-5-tertiary-butylamino-acetyl-10,11-dihydro-5H-dibenz[b,f]azepine] | 5.6 | – | 0.35 mg/kg | 16 | – | – | – |
| CCCCNCC(=O)N1c2ccccc2CCc2ccc(NC(=O)OCC)cc21 [No. 7, 3-carbethoxyamino-5-n-butylamino-acetyl-10,11-dihydro-5H-dibenz[b,f]azepin] | 5 | – | 0.29 mg/kg | 17 | – | – | – |
| CCOC(=O)Nc1ccc2c(c1)N(C(=O)CNC1CCCCC1)c1ccccc1CC2 [No. 8, 3-carbethoxyamino-5-cyclohexylamino-acetyl-10,11-dihydro-5H-dibenz[b,f]azepine] | 3.7 | – | 0.25 mg/kg | 15 | – | – | – |
| CCCCCCNCC(=O)N1c2ccccc2CCc2ccc(NC(=O)OCC)cc21 [No. 9] | 14 | – | 0.90 mg/kg | 16 | – | – | – |
| CCOC(=O)Nc1ccc2c(c1)N(C(=O)CN)c1ccccc1CC2 [No. 10, 3-carbethoxyamino-5-amino-acetyl-10,11-dihydro-5H-dibenz[b,f]azepine] | 14 | – | 0.20 mg/kg | 70 | – | – | – |
| CNCC(=O)N1c2ccccc2CCc2ccc(NC(=O)OC(C)C)cc21 [No. 11] | 15 | – | 0.61 mg/kg | 25 | – | – | – |
| CC(C)OC(=O)Nc1ccc2c(c1)N(C(=O)CNCCO)c1ccccc1CC2 [No. 12] | 20 | – | 0.51 mg/kg | 39 | – | – | – |
| CCNCC(=O)N1c2ccccc2CCc2ccc(NC(=O)OC(C)C)cc21 [No. 13, 3-carbisopropoxyamino-5-ethylamino-acetyl-10,11-dihydro-5H-dibenz[b,f]azepine] | 16 | – | 0.47 mg/kg | 34 | – | – | – |
| CC(C)OC(=O)Nc1ccc2c(c1)N(C(=O)CNC(C)(C)C)c1ccccc1CC2 [No. 14] | – | – | 0.18 mg/kg | – | – | – | – |
| CNCC(=O)N1c2ccccc2CCc2ccc(NC(=O)OC)cc21 [No. 15] | 20 | 15 | 0.30 mg/kg | 67 | – | – | – |
| COC(=O)Nc1ccc2c(c1)N(C(=O)CNCCO)c1ccccc1CC2 [No. 16] | 36 | – | 0.40 mg/kg | 90 | – | – | – |
| CCNCC(=O)N1c2ccccc2CCc2ccc(NC(=O)OC)cc21 [No. 17] | 19 | 15 | 0.95 mg/kg | 20 | – | – | – |
| CCOC(=O)Nc1ccc2c(c1)N(C(=O)CCNCCO)c1ccccc1CC2 [No. 18] | 20 | 60 | 0.85 mg/kg | 24 | – | – | – |
| CCOC(=O)Nc1ccc2c(c1)N(C(=O)CNC)c1ccccc1C=C2 [No. 19] | 11 | – | 0.32 mg/kg | 34 | – | – | – |
| CCNCC(=O)N1c2ccccc2C=Cc2ccc(NC(=O)OCC)cc21 [No. 20, 3-carbethoxyamino-5-ethylamino-acetyl-acetyl-5H-dibenz[b,f]azepine] | 6.2 | – | 0.40 mg/kg | 15 | – | – | – |
| CCNCCC(=O)N1c2ccccc2CCc2ccc(NC(=O)OCC)cc21 [No. 21, 3-carbethoxyamino-5-(β-ethylaminopropionyl)-10,11-dihydro-5H-dibenz[b,f]azepine] | 12 | – | 0.42 mg/kg | 29 | – | – | – |
| CCOC(=O)Nc1ccc2c(c1)N(C(=O)CNC(C)c1ccccc1)c1ccccc1CC2 (stereo not drawn) [No. 22, 3-carbethoxyamino-5-(α-phenylethylamino)-acetyl-10,11-dihydro-5H-dibenz[b,f]azepine] | 31 | – | 3.5 mg/kg | 9 | – | – | – |
